Measured values: PubChem BioAssay AID248 (DTP/NCI, 2004)
Where “and” joins values, the source holds several entries; their conditions need not be identical. Equal entries are not always repeated. Inconclusive results and toxic doses are left out. No stated cut-off is given here; in the data, active means T/C of 150% or more; inactive means T/C below 125%.

Test system: L1210 leukemia ip in BDF1 mice, survival T/C
Assay: NCI In Vivo Anticancer Drug Screen. Data for tumor model L1210 Leukemia (intraperitoneal) in B6D2F1 (BDF1) mice
Conditions: endpoint: mean survival time, higher = longer survival
Method in brief: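 Read-out is survival time, reported as the treated-group measurement over the vehicle-control measurement.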

[1] = dose: 50.0 mg/kg/injection, schedule: Q01DX009 (ip), vehicle: saline
[2] = dose: 100.0 mg/kg/injection, schedule: Q01DX009 (ip), vehicle: saline
[3] = dose: 200.0 mg/kg/injection, schedule: Q01DX009 (ip), vehicle: saline
[4] = dose: 100.0 mg/kg/injection, schedule: Q01DX009 (ip), vehicle: saline with Tween-80
[5] = dose: 100.0 mg/kg/injection, schedule: Q04DX003 (ip), vehicle: saline with Tween-80
[6] = dose: 200.0 mg/kg/injection, schedule: Q01DX009 (ip), vehicle: saline with Tween-80
[7] = dose: 200.0 mg/kg/injection, schedule: Q04DX003 (ip), vehicle: saline with Tween-80
[8] = dose: 400.0 mg/kg/injection, schedule: Q04DX003 (ip), vehicle: saline with Tween-80
[9] = dose: 100.0 mg/kg/injection, schedule: Q04DX003 (ip), vehicle: saline
[10] = dose: 200.0 mg/kg/injection, schedule: Q04DX003 (ip), vehicle: saline
[11] = dose: 50.0 mg/kg/injection, schedule: Q01DX001 (ip), vehicle: carboxymethylcellulose (CMC)
[12] = dose: 100.0 mg/kg/injection, schedule: Q01DX001 (ip), vehicle: carboxymethylcellulose (CMC)
[13] = dose: 400.0 mg/kg/injection, schedule: Q01DX001 (ip), vehicle: carboxymethylcellulose (CMC)

Measured: T/C

CCOC(=O)CNC(=O)CNC(=O)CNC(=O)CCCCSc1ncnc2nc[nH]c12
inactive: dose: 25.0 mg/kg/injection, schedule: Q01DX009 (ip), vehicle: saline 102 % of control | dose: 25.0 mg/kg/injection, schedule: Q01DX009 (oral), vehicle: saline 106 % of control | [1] 110 % of control | dose: 50.0 mg/kg/injection, schedule: Q01DX009 (oral), vehicle: saline 90 % of control | [2] 96 % of control | dose: 100.0 mg/kg/injection, schedule: Q01DX009 (oral), vehicle: saline 98 % of control | [3] 104 % of control | dose: 200.0 mg/kg/injection, schedule: Q01DX009 (oral), vehicle: saline 95 % of control | dose: 400.0 mg/kg/injection, schedule: Q01DX009 (ip), vehicle: saline 98 % of control | dose: 400.0 mg/kg/injection, schedule: Q01DX009 (oral), vehicle: saline 114 % of control | dose: 800.0 mg/kg/injection, schedule: Q01DX009 (ip), vehicle: saline 96 % of control | dose: 800.0 mg/kg/injection, schedule: Q01DX009 (oral), vehicle: saline 101 % of control

CC(=O)OCC1OC(n2c(=S)[nH]c3c(N)ncnc32)C(OC(C)=O)C1OC(C)=O (stereo unspecified)
inactive: dose: 50.0 mg/kg/injection, schedule: Q01DX001 (ip), vehicle: saline 98 % of control | dose: 100.0 mg/kg/injection, schedule: Q01DX001 (ip), vehicle: saline 98 % of control | dose: 200.0 mg/kg/injection, schedule: Q01DX001 (ip), vehicle: saline 95 % of control | dose: 400.0 mg/kg/injection, schedule: Q01DX001 (ip), vehicle: saline 98 % of control

Cc1ccc(NC(C(=O)c2ccccc2)c2ccccc2)cc1 (stereo unspecified)
inactive: dose: 300.0 mg/kg/injection, schedule: Q01DX Z (ip), vehicle: carboxymethylcellulose (CMC) 97 % of control | dose: 450.0 mg/kg/injection, schedule: Q01DX Z (ip), vehicle: carboxymethylcellulose (CMC) 103 % of control | dose: 675.0 mg/kg/injection, schedule: Q01DX Z (ip), vehicle: carboxymethylcellulose (CMC) 107 % of control

COc1ccc(C2CCc3cc4c(cc3/C2=N/O)OCO4)cc1OC (stereo unspecified)
inactive: [4] 98 % of control | [5] 90 % of control | [6] 92 % of control | [7] 90 % of control | dose: 400.0 mg/kg/injection, schedule: Q01DX009 (ip), vehicle: saline with Tween-80 105 % of control | [8] 91 % of control

COC(=O)c1cn2cc(Cl)cc(Cl)c2c1C(=O)OC
inactive: dose: 100.0 mg/kg/injection, schedule: Q04DX002 (ip), vehicle: saline with Tween-80 95 % of control | dose: 200.0 mg/kg/injection, schedule: Q04DX002 (ip), vehicle: saline with Tween-80 92 % of control | dose: 400.0 mg/kg/injection, schedule: Q04DX002 (ip), vehicle: saline with Tween-80 95 % of control

O=C(CN1CCOCC1)Nc1ccc(S(=O)(=O)c2ccc(Cl)cc2)cc1
inactive: [5] 101 % of control | [7] 101 % of control | [8] 95 % of control

Cc1c(C(=O)O)cc([N+](=O)[O-])cc1[N+](=O)[O-]
inactive: dose: 50.0 mg/kg/injection, schedule: Q01DX009 (ip), vehicle: saline with Tween-80 103 % of control | [4] 97 % of control | [6] 93 % of control

CC1(C(Cl)(Cl)Cl)C=CC(O)C=C1 (stereo unspecified)
inactive: dose: 25.0 mg/kg/injection, schedule: Q01DX009 (ip), vehicle: Klucel (hydroxypropylcellulose) (HPC) 90 % of control | dose: 25.0 mg/kg/injection, schedule: Q04DX002 (ip), vehicle: Klucel (hydroxypropylcellulose) (HPC) 87 % of control | dose: 50.0 mg/kg/injection, schedule: Q01DX009 (ip), vehicle: Klucel (hydroxypropylcellulose) (HPC) 93 % of control | dose: 50.0 mg/kg/injection, schedule: Q04DX002 (ip), vehicle: Klucel (hydroxypropylcellulose) (HPC) 93 % of control | dose: 100.0 mg/kg/injection, schedule: Q01DX009 (ip), vehicle: Klucel (hydroxypropylcellulose) (HPC) 97 % of control and 90 % of control | dose: 100.0 mg/kg/injection, schedule: Q04DX002 (ip), vehicle: Klucel (hydroxypropylcellulose) (HPC) 97 % of control and 89 % of control | dose: 150.0 mg/kg/injection, schedule: Q01DX009 (ip), vehicle: Klucel (hydroxypropylcellulose) (HPC) 93 % of control

CCOC(=O)c1ccc(NCc2nc3nc(N)nc(N)c3[nH]2)cc1
inactive: dose: 75.0 mg/kg/injection, schedule: Q01DX001 (ip), vehicle: other 102 % of control | dose: 150.0 mg/kg/injection, schedule: Q01DX001 (ip), vehicle: other 97 % of control | dose: 300.0 mg/kg/injection, schedule: Q01DX001 (ip), vehicle: other 97 % of control

CSc1nc(C)c(Br)c(Nc2ccc(C(N)=O)cc2)n1
inactive: dose: 87.5 mg/kg/injection, schedule: Q01DX009 (ip), vehicle: Klucel (hydroxypropylcellulose) (HPC) 94 % of control | dose: 175.0 mg/kg/injection, schedule: Q01DX009 (ip), vehicle: Klucel (hydroxypropylcellulose) (HPC) 91 % of control | dose: 350.0 mg/kg/injection, schedule: Q01DX009 (ip), vehicle: Klucel (hydroxypropylcellulose) (HPC) 101 % of control

CN=C(NC)c1cccc(NC(=O)/C=C\c2ccc(/C=C/C(=O)Nc3cccc(C(=NC)NC)c3)cc2)c1
inactive: dose: 0.56 mg/kg/injection, schedule: Q01DX Z (ip), vehicle: carboxymethylcellulose (CMC) 103 % of control | dose: 1.12 mg/kg/injection, schedule: Q01DX Z (ip), vehicle: carboxymethylcellulose (CMC) 103 % of control | dose: 2.25 mg/kg/injection, schedule: Q01DX Z (ip), vehicle: carboxymethylcellulose (CMC) 120 % of control

CN(C)C
inactive: [1] 101 % of control | dose: 100.0 mg/kg/injection, schedule: Q04DX002 (ip), vehicle: saline 105 % of control | [9] 98 % of control | dose: 200.0 mg/kg/injection, schedule: Q04DX002 (ip), vehicle: saline 97 % of control | [10] 94 % of control

CCCCCCOB(OCCCCCC)OCCCCCC
inactive: [11] 107 % of control | dose: 88.0 mg/kg/injection, schedule: Q01DX001 (ip), vehicle: carboxymethylcellulose (CMC) 97 % of control and 98 % of control | [12] 102 % of control | dose: 133.0 mg/kg/injection, schedule: Q01DX001 (ip), vehicle: carboxymethylcellulose (CMC) 96 % of control and 103 % of control | dose: 300.0 mg/kg/injection, schedule: Q01DX001 (ip), vehicle: carboxymethylcellulose (CMC) 93 % of control and 94 % of control | [13] 105 % of control

COc1cccc(CC(N)=O)c1OC
inactive: [2] 97 % of control | [9] 95 % of control | [3] 90 % of control | [10] 92 % of control | dose: 400.0 mg/kg/injection, schedule: Q04DX003 (ip), vehicle: saline 97 % of control

O=C1c2ccccc2C(=O)C2C3C=CC(C3)C12 (stereo unspecified)
inactive: [11] 93 % of control | [12] 100 % of control | dose: 200.0 mg/kg/injection, schedule: Q01DX001 (ip), vehicle: carboxymethylcellulose (CMC) 100 % of control | [13] 103 % of control

CCN1C(=O)Cc2ccccc21
inactive: dose: 100.0 mg/kg/injection, schedule: Q01DX001 (ip), vehicle: Klucel (hydroxypropylcellulose) (HPC) 98 % of control | dose: 200.0 mg/kg/injection, schedule: Q01DX001 (ip), vehicle: Klucel (hydroxypropylcellulose) (HPC) 102 % of control | dose: 400.0 mg/kg/injection, schedule: Q01DX001 (ip), vehicle: Klucel (hydroxypropylcellulose) (HPC) 93 % of control

Nc1cc2ccccc2cn1
inactive: dose: 100.0 mg/kg/injection, schedule: Q04DX003 (ip), vehicle: Klucel (hydroxypropylcellulose) (HPC) 112 % of control | dose: 200.0 mg/kg/injection, schedule: Q04DX003 (ip), vehicle: Klucel (hydroxypropylcellulose) (HPC) 102 % of control | dose: 400.0 mg/kg/injection, schedule: Q04DX003 (ip), vehicle: Klucel (hydroxypropylcellulose) (HPC) 107 % of control
